Earlier results, collected in patent publication US10058543B2, “Treatment of familial exudative vitreoretinopathy through S1PR2 inhibition” (DALHOUSIE UNIVERSITY, priority 2014, dated 2018).
“Also recorded” adds a separate entry of the source.

Assays:
S1PR2 = S1PR2 (Homo sapiens, UniProt O95136)
VEGF = conditions: ocular injection, FEVR patient, one study
VEGF, sequence (P15692 207-311 limits assumed): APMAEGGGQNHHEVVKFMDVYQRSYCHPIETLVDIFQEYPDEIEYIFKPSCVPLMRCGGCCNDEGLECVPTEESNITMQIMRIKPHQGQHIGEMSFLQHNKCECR

S1PR2, sequence (O95136 whole entry): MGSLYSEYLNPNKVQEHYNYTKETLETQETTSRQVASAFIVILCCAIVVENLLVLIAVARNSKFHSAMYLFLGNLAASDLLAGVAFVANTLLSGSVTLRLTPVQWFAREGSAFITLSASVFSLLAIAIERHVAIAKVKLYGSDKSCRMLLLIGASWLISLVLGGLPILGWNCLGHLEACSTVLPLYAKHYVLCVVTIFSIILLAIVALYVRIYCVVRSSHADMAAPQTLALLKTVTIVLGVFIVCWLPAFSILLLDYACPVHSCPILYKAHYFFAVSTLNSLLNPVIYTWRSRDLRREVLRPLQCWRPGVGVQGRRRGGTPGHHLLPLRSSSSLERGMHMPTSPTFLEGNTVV

Row | Compound | specificity for S1PR2 versus other S1PRs (S1PR2) [fold] | affinity (S1PR2; S1PR2, stated in words) | specificity for S1PR2 (S1PR2; stated in words) | retinal hemorrhage and neovascularization (VEGF)
1 | Cc1nn(C)c2nc(NNC(=O)Nc3cc(Cl)nc(Cl)c3)cc(C(C)C)c12 [JTE-103, 1-(2,6-dichloro-4-pyridyl)-3-[(4-isopropyl-1,3-dimethyl-pyrazolo[3,4-n]pyridin-6-yl)amino]urea] | 10 | uM affinity; also recorded: low affinity | some specificity for S1PR2 | 
2 | bevacizumab: monoclonal antibody that inhibits VEGF function originally developed to treat cancers |  |  |  | improvement of retinal hemorrhage and neovascularization
